Patent US20050215517A1, “Use of an anti-endotoxin drug in the prevention and treatment of disease” (priority 1999, published 2005)

Experiments:
[1] = Plasma pharmacokinetics of E5564 after single bolus intravenous injection; type: in vivo, dogs; settings: single bolus i.v.
Procedure: FIG. 3 is a graph showing the plasma levels of E5564 after a single bolus injection. After bolus administration of 0.1 mg/kg E5564 (∘), 0.3 mg/kg E5564 (□), and 1 mg/kg E5564 (▪), blood was drawn and analyzed for E5564 concentration by extraction and analysis by HPLC. Each value represents the mean±S.E.M. of three animals. No drug was detectable in samples drawn prior to dosing.
(§1) This long-term presence of unmodified E5564 in blood initially led us to believe that active drug was likely present for very long periods of time after cessation of drug administration.

LPS-induced IL-6 release = assay: Inhibition of LPS-induced IL-6 release in ex vivo blood samples during intravenous infusion of E5564; design: species or system beagle dogs
Procedure: (§2) FIG. 5 is a pair of graphs showing ex vivo analysis of active E5564 during intravenous infusion. Activity of E5564 was determined during intravenous infusion of 0.24 mg/kg/hour E5564 (□,∘) or 2.4 mg/kg/hour E5564 (▪,●) into female (upper panel) or male (lower panel) beagle dogs. At the indicated times, blood was drawn and analyzed for E5564 activity by adding 1 ng/ml LPS, incubating for three hours at 37° C., and assaying the plasma fraction for IL-6 by bioassay, as is described in the Materials and Methods section (below). Each value represents the mean±standard deviation of samples assayed in duplicate from each animal. The zero hour sample was taken prior to infusion.
as §2, with “FIG. 6” for “FIG. 5”, “adding 10” for “adding 1”
as §2, with “FIG. 7” for “FIG. 5”, “adding 100” for “adding 1”
To assess the activity of E5564 over multiple time points from a single treated animal, we employed an ex vivo assay, as is mentioned above, to test for active drug in samples of blood drawn from a treated animal. Samples of blood were drawn from beagle dogs infused with E5564 over a period of 24 hours. One dog of each sex was tested under each of two dose regimens: a low dose of 0.24 mg/kg/hour and a high dose of 2.4 mg/kg/hour.
Blood samples were taken from these dogs at predose, 4 hours after initiation of infusion, and 24 hours after initiation of infusion. The blood samples were challenged with 0, 1, 10, or 100 ng/ml LPS, and then incubated for three hours. The samples were then analyzed for activation by LPS, using induction of cytokine response as a readout.
LPS from Escherichia coli (0111:B4) was purchased from List Biologicals (Campbell, Calif.). LPS was dissolved in sterile water at 1 mg/ml and stored at −20° C. Prior to use, LPS was sonicated in a bath sonicator (VW-380; Heat Systems-Ultrasonics Inc., Farmingdale, N.Y.) for 1-2 minutes immediately before use and diluted into Ca^2+, Mg^2+ free Hanks balanced salt solution (HBSS; Sigma).
Dogs were treated with E5564 (0.24 or 2.4 mg/kg/hour) dissolved in a mixture of placebo solution (10% lactose monohydrate, 0.045% Na2HPO4.7H2O, 0.035% NaH2PO4.H2O, 0.006% NaOH; pH 7.4±0.3) and 5% dextrose (1:4) by intravenous infusion via indwelling catheter for 24 hours at a rate of 2 mg/kg/hour.
(for time zero samples), or incubated with the indicated concentrations of LPS for three hours. Plasma was then prepared and immediately frozen at −80° C. Samples were stored at −80° C. until assay.
B9 cells were the gift of Dr. Mary Rodrick (Beth Israel Deaconess Hospital, Boston, Mass.). They were grown in Iscove's DMEM medium containing 5% fetal bovine serum (FBS), […] 2-mercaptoethanol, 2 mM L-glutamine, and 100 U/ml penicillin/streptomycin. […]

[2] = Relative toxicity of E5564 versus B531 (animal studies); settings: E5564 compared with B531
[3] = Plasma pharmacokinetics of E5564 after 72 hours intravenous infusion; type: in vivo, beagle dogs; settings: 72 h i.v. infusion; for T½: after end of infusion
Procedure: FIG. 4 is a graph showing the plasma levels of E5564 during and after 72 hours of intravenous infusion. […] At the indicated times, blood was drawn and analyzed for E5564 concentration by extraction and analysis by HPLC. Each value represents the mean±S.E.M. of three animals. No drug was detectable in samples drawn prior to dosing.
as §1

`CCCCCC/C=C\CCCCCCCCCC(=O)N[C@H]1[C@H](OC[C@H]2O[C@H](OP(=O)(O)O)[C@H](NC(=O)CC(=O)CCCCCCCCCCC)[C@@H](OCCCCCCCCCC)[C@@H]2O)O[C@H](COC)[C@@H](OP(=O)(O)O)[C@@H]1OCC[C@@H](CCCCCCC)OC` [E5564, α-D-Glucopyranose, 3-O-decyl-2-deoxy-6-O-[2-deoxy-3-O-[(3R)-3-methoxydecyl)-6-O-methyl-2-[[(11Z)-1-oxo-11-octadecenyl)amino]-4-O-phosphono-β-D-glucopyranosyl]-2-[(1,3-dioxotetradecyl)amino]-,1-(dihydrogen phosphate)] showed an AUC ([1]; 0.1 mg/kg dose) of 71.8255 ± 1.981 µg·h/mL, a T½ ([1]; 0.1 mg/kg dose) of 41.7 ± 2.7 h and an AUC ([1]; 0.3 mg/kg) of 270.8972 µg·h/mL. It also gave a T½ ([1]; 0.3 mg/kg) of 50.4 ± 2.2 h, an AUC ([1]; 1 mg/kg) of 743.5446 µg·h/mL and a T½ ([1]; 1 mg/kg) of 46.4 ± 2.7 h. The “Inhibition of response to LPS (IL-6) vs predose” value (LPS-induced IL-6 release; infusion 0.24 mg/kg/hour, 1 ng/ml LPS, 4 hours after beginning infusion) was ≥ 98%, the “Inhibition of response to LPS (IL-6) vs predose” value (LPS-induced IL-6 release; infusion 0.24 mg/kg/hour, 1 ng/ml LPS, end of infusion (24 hours)) was “complete” and the “Inhibition of response to LPS (IL-6) vs predose” value (LPS-induced IL-6 release; infusion 0.24 mg/kg/hour, 10 ng/ml LPS, end of infusion (24 hours)) was ~85%. For the same compound, the “Maximum inhibition of response to LPS (IL-6) vs predose” value (LPS-induced IL-6 release; infusion 0.24 mg/kg/hour, 100 ng/ml LPS, end of infusion (24 hours)) was 34-52%, the “Inhibition of response to LPS (IL-6) vs predose” value (LPS-induced IL-6 release; infusion 2.4 mg/kg/hour, 1 ng/ml LPS, 4 hours after beginning infusion) was “complete inhibition” and the “Inhibition of response to LPS (IL-6) vs predose” value (LPS-induced IL-6 release; infusion 2.4 mg/kg/hour, 1 ng/ml LPS, end of infusion (24 hours)) was “complete”. The “Inhibition of response to LPS (IL-6) vs predose” value (LPS-induced IL-6 release; infusion 2.4 mg/kg/hour, 10 ng/ml LPS, 4 hours) was “nearly completely inhibited”, the “Inhibition of response to LPS (IL-6) vs predose” value (LPS-induced IL-6 release; infusion 2.4 mg/kg/hour, 10 ng/ml LPS, end of infusion (24 hours)) was “complete” and the “Inhibition of response to LPS (IL-6) vs predose” value (LPS-induced IL-6 release; infusion 2.4 mg/kg/hour, 100 ng/ml LPS, 4 hours) was “nearly completely inhibited”. For the same compound, the “Inhibition of response to LPS (IL-6) vs predose” value (LPS-induced IL-6 release; infusion 2.4 mg/kg/hour, 100 ng/ml LPS, end of infusion (24 hours)) was > 90%, the “Toxicity relative to B531” value [2] was “about twenty-fold less toxic than B531” and the AUC0-144 hours ([3]; dose 0.1 mg/kg, female) was 790 ± 51 µg·h/mL. The C72 hours ([3]; dose 0.1 mg/kg, female) was 10350 ± 930 ng/mL, the AUC0-144 hours ([3]; dose 0.1 mg/kg, male) was 1069 ± 139 µg·h/mL and the C72 hours ([3]; dose 0.1 mg/kg, male) was 13070 ± 1220 ng/mL. It also gave an AUC0-144 hours ([3]; dose 0.3 mg/kg, female) of 2616 ± 737 µg·h/mL, a C72 hours ([3]; dose 0.3 mg/kg, female) of 32400 ± 5720 ng/mL and an AUC0-144 hours ([3]; dose 0.3 mg/kg, male) of 3309 ± 485 µg·h/mL. It also gave a C72 hours ([3]; dose 0.3 mg/kg, male) of 41290 ± 7180 ng/mL, an AUC0-144 hours ([3]; dose 1 mg/kg, female) of 29642 ± 1514 µg·h/mL and a C72 hours ([3]; dose 1 mg/kg, female) of 393900 ± 14200 ng/mL. The AUC0-144 hours ([3]; dose 1 mg/kg, male) was 27114 ± 5737 µg·h/mL, the C72 hours ([3]; dose 1 mg/kg, male) was 366000 ± 69300 ng/mL and the T½ ([3]; dose 0.1 mg/kg, female) was 40.9 ± 9.5 h. For the same compound, the T½ ([3]; dose 0.1 mg/kg, male) was 38.4 ± 4.5 h, the T½ ([3]; dose 0.3 mg/kg, female) was 38.0 ± 11.6 h and the T½ ([3]; dose 0.3 mg/kg, male) was 39.9 ± 11.2 h. The T½ ([3]; dose 1 mg/kg, female) was 32.0 ± 2.8 h and the T½ ([3]; dose 1 mg/kg, male) was 35.1 ± 8.7 h.
